Among the data in patent EP0366385A1, “Guanine derivatives having antiviral activity and their pharmaceutically acceptable salts” (THE WELLCOME FOUNDATION LIMITED, priority 1988, dated 1990) are IC50 values, retold here.

In this experiment the test system is HIV. In words: Antiviral activity against HIV (method of Mitsuya et al.). It is filed as cell-based. To be noted: Human immunodeficiency virus 1, read-out: IC₅₀. The method, then:
The title compound of Example 1G (L-valine ester) and the title compound of Example 1F (the 1S, 4R enantiomeric form of carbovir) were tested for activity against HIV generally in accordance with the method described by Mitsuya et al, Proc. Natl. Acad. Sci. Vol. 82, pp 7096-7100, Oct. 1985 and found to have activity against HIV at the following concentrations

In the case of `Nc1nc2c(ncn2[C@H]2C=C[C@@H](CO)C2)c(=O)[nH]1` [Example 1F, (1R, 4S)-9-(4-Hydroxymethyl-2-cyclopentenyl)guanine], the IC50 is 2500 nM.
